Source: ChEMBL document CHEMBL1134087, “Inhibitors of the bacterial cell wall biosynthesis enzyme MurC” (Bioorg Med Chem Lett, 2001)

What was measured:
[1] = Tested for inhibitory activity against UDP-N-acetylmuramoyl-L-alanine synthetase from Escherichia coli by malachite green assay
[2] = Tested for inhibitory activity against UDP-N-acetylmuramoyl-L-alanine synthetase from Escherichia coli by malachite green assay; Inactive

IC50 [1] | IC50 [2] | SMILES
0.049 µM | – | CC(=O)N[C@H]1C(OP(=O)(O)OP(=O)(O)OC[C@H]2O[C@@H](n3ccc(=O)[nH]c3=O)[C@H](O)[C@@H]2O)O[C@H](CO)[C@@H](O)[C@@H]1OCP(=O)(O)CC(C)C(=O)O (some centres undefined)
60 µM | – | CC(CP(=O)(O)COCCCOP(=O)(O)OP(=O)(O)OC[C@H]1O[C@@H](n2ccc(=O)[nH]c2=O)[C@H](O)[C@@H]1O)C(=O)O (some centres undefined)
> 100 µM | – | CC(=O)N[C@H]1[C@@H](OP(=O)(O)O)O[C@H](CO)[C@@H](O)[C@@H]1OCP(=O)(O)CC(C)C(=O)O (some centres undefined)
– | Not Active | CC(CP(=O)(O)COCCCOP(=O)(O)O)C(=O)O (centres undefined)
